Data published in patent publication US11091490B2, “3-amino-1,5-dihydro-pyrazolo[3,4-d]pyrimidin-4-ones as cyclin dependent kinase inhibitors” (Oncotyrol Center for Personalized Cancer Medicine GMBH, priority 2016, dated 2021).
Values joined by “and” are separate entries in the source; they are usually repeats but may differ in a detail not shown here. Identical values can stand only once. Like-named read-outs stand apart in the source and are kept apart here.

Assays:
CDK16 = target: T1, CDK16 (Homo sapiens, UniProt Q00536); assay: Target selectivity profile (DiscoverX KinomeScan) CDK16; format: binding
T1 construct: purchased DiscoverX
T1 sequence (Q00536 whole entry): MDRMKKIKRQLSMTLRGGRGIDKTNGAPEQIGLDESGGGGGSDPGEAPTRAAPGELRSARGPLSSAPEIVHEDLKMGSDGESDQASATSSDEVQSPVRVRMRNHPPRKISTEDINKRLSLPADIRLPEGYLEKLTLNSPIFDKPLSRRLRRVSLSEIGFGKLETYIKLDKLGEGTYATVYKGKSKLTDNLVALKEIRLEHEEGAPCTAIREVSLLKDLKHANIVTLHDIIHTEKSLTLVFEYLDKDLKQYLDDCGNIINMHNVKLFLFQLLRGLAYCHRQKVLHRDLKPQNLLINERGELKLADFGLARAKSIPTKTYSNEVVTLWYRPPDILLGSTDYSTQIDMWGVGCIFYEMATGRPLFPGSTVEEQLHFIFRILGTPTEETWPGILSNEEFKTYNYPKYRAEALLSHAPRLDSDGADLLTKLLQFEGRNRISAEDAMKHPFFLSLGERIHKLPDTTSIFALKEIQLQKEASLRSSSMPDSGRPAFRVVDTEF
Text: 3. Target Selectivity Profile (DiscoverX KinomeScan)
According to an analysis of kinase inhibitory selectivity carried out in accordance with Karaman M W et al., Nat Biotechnol. 2008 January; 26(1):127-32. doi: 10.1038/nbt1358.

[1] = tested on: HeLa cervix carcinoma cells; assay: PARP cleavage Western blot HeLa; format: cell-based; conditions: 24 h, 100 nM, FIG. 1B legend 0.08 μM
Text: (§1) In order to investigate the mode of action (MOA) related to the antitumor activity of the compounds of the present invention (in particular compound 86) in solid tumors and multiple myeloma, two experimental strategies were used to confirm the postulated MOA: 1) monitoring of apoptosis induction and 2) cell cycle analysis upon treatment with compound 86. Three cancer cell lines (LP-1, (multiple myeloma cells, DSMZ ACC 41), A375 (melanoma cells), and HeLa (cervix carcinoma cells)) as well as control cells (HS-5 bone marrow stroma cells, ATCC CRL-11882) were used to obtain mechanistic insight into the antitumor activity of compound 86.
(§2) Annexin V staining and Poly(ADP-ribose)-Polymerase 1 (PARP) protein cleavage was analyzed to identify a pro-apoptotic effect of compound 86 on tumor cells in accordance with the method of Koopman G, et. al. Blood 1994; 1; 84(5):1415-20. Annexin V allows the identification of cell surface changes that occur early during the apoptotic process by in situ detection, which is ideal for the analysis with adherent cells. Cleavage of PARP-1 by caspases is considered to be a hallmark of apoptosis and was therefore applied to monitor apoptosis induction after 24 h of treatment with 100 nM of compound 86.

NCI-H929/GN2 = assay: Multiple myeloma cells in mono- and co-culture with osteoblasts, imaging based detection (NCI-H929); format: cell-based
Procedure: (§3) Compound 86 has been compared with the key compound of WO 2000/21926 A2 (Example 121) in an imaging based detection system.
(§4) Two different multiple myeloma (MM) cell lines (RPMI-8226 (DSMZ, ACC 402), NCI-H929 DSMZ, ACC 163) have been used and were cultured in mono- and co-culture with osteoblasts (OB) (Osteoblasts were obtained by culturing hMSCs with a differentiation inducing medium for two weeks) in accordance with the method of Karadag A. et al. Journal of Bone and Mineral Research Vol. 15, No. 10, 2000 page 1935-43.

Pharmacokinetic studies = conditions: in vivo
Text: Pharmacokinetic studies on the compounds of the present invention have been carried out in accordance with Endele R and Senn M., Int. J. Mass Spectrom. Ion Phys. 1983 January; 48:81-84. doi:10.1016/0020-7381(83)87033-8.

U2OS (bone) = assay: In vitro proliferation screening (Sulforhodamin B) U2OS; format: cell-based, human; conditions: 72 h
Text: (§5) In order to evaluate the antitumor activity of the compounds of the present invention, in particular compound 86, in solid tumors, an in vitro proliferation screening in a panel of 10 different human cancer cell lines derived from solid tumors (see Table 5, below) as a model system.
(§6) Six 10-fold dilutions of compound 86 have been prepared in DMSO, from 5×10^−9 M to 5×10^−4. Single data points have been tested for each concentration. The final concentration of DMSO was 0.1%. The duration of the treatment was 72 hours. The growth inhibition was measured by using Sulforhodamin B, a protein-staining assay in accordance with Vichai V et. al. Nat. Protoc. 2006; 1(3):1112-6. Activity of the agents was determined by evaluating the following parameters: IC50, GI50, IC10, GI10, TGI, LC50, IC90 and GI90 (if these values could be calculated).

RPMI-8226/GN1 = assay: Multiple myeloma cells in mono- and co-culture with osteoblasts, imaging based detection (RPMI-8226); format: cell-based
Procedure: as §3, §4

BXPC3 (pancreas) = assay: In vitro proliferation screening (Sulforhodamin B) BXPC3; format: cell-based, human; conditions: BXPC3, 72 h
Text: as §5, §6

DU145 (prostate) = assay: In vitro proliferation screening (Sulforhodamin B) DU145; format: cell-based; conditions: Homo sapiens, DU-145; DU145, 72 h; unit M
Text: as §5, §6

NCIH82 (lung) = assay: In vitro proliferation screening (Sulforhodamin B) NCIH82; format: cell-based; conditions: Homo sapiens, NCI-H82; NCIH82, 72 h; unit M
Text: as §5, §6

[2] = tested on: HS-5 bone marrow stroma cells (control); assay: Cell cycle analysis (propidium iodide FACS) HS-5; format: cell-based; conditions: HS-5 control cells, 100 nM, 12 and 24 h
Text: as §1
Measuring of DNA content in cells is a well-established method for monitoring cell proliferation, cell cycle, fragmentation of nuclei (apoptosis) and DNA ploidy. Proliferating cells progress through various phases of the cell cycle (G0, G1, S, G2, and M phase). At different stages of the cell cycle and life cycle, cell nuclei contain different amounts of DNA. The DNA content in cell nuclei was analyzed by propidium iodide (PI) staining and FACS analysis after 12 and 24 h of treatment with 100 nM of compound 86 in accordance with the method of Desai Brijal M. et. al. PLOS Vol. 8; Issue 3; p. 1-11, 2013.

A375 melanoma cells = assay: Annexin V/PI staining A375; format: cell-based; conditions: A375, 0.1 μM, 12 h and 24 h
Text: as §1, §2

[3] = target: human ether-a-go-go-related gene (hERG)-encoded K+ channel (Homo sapiens, UniProt Q12809); assay: Medium-throughput electrophysiology based hERG assay; format: cell-based
Sequence of human ether-a-go-go-related gene (hERG)-encoded K+ channel (Q12809 whole entry): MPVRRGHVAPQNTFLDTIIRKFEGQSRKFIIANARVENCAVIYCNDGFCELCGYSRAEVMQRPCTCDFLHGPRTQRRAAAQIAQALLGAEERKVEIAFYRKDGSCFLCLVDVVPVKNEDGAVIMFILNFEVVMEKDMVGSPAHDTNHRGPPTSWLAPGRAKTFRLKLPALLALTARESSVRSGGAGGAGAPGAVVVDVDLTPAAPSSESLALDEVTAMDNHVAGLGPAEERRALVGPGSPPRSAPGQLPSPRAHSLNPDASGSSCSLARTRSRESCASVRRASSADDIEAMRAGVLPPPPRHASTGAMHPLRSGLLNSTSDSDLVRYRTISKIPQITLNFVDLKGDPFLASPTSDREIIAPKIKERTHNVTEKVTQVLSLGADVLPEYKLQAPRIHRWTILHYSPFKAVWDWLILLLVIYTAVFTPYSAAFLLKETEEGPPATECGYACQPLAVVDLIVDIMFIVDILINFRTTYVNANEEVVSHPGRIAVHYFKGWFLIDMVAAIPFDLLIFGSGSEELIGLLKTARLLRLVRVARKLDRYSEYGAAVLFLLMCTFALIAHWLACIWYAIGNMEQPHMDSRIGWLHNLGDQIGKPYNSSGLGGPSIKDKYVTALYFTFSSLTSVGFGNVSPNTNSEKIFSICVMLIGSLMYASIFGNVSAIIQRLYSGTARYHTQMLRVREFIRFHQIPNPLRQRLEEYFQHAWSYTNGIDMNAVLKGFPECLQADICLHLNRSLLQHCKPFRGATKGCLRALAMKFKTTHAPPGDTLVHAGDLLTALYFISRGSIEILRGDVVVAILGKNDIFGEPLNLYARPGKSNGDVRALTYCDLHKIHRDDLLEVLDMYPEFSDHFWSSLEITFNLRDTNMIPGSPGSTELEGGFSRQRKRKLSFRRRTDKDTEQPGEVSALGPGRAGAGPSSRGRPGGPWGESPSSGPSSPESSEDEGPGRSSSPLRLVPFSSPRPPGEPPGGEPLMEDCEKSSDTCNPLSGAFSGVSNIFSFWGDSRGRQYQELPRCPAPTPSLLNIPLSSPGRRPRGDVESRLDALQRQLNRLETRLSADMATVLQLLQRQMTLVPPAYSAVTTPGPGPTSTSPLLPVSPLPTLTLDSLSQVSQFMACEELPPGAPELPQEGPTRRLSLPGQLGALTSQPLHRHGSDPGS
Text: In a medium-throughput electrophysiology based hERG assay carried out in accordance with Bridgland-Taylor M H et al., J Pharmacol Toxicol Methods. 2006 September-October; 54(2):189-99. Epub 2006 Mar. 6.

[4] = tested on: HS-5 bone marrow stroma cells (control); assay: Annexin V/PI staining HS-5; format: cell-based; conditions: HS-5 control cells, 0.1 μM, 12 h and 24 h
Text: as §1, §2

CCN(CC)CC(=O)Nc1ccc(Cc2nc3c(c(N(C)C)nn3-c3c(Cl)cc(S(N)(=O)=O)cc3Cl)c(=O)[nH]2)cc1 [Compound 86, N-{4-[1-(2,6-Dichloro-4-sulfamoyl-phenyl)-3-dimethylamino-4-oxo-4,5-dihydro-1H-pyrazolo[3,4-d]pyrimidin-6-ylmethyl]-phenyl}-2-diethylamino-acetamide]
kinase inhibitory selectivity: CDK16 (CDK16): active as inhibitors | PARP cleavage [1]: specific induction of PARP cleavage | PARP cleavage ([1]; listed as Otviciclib): induction of PARP cleavage | EC50 (NCI-H929/GN2; Homo sapiens, NCI-H929, NCI-H929/GN2, co-culture with osteoblasts, read-out: co-culture (+ OB) EC50): 72 nM | EC50 (NCI-H929/GN2; Homo sapiens, NCI-H929, NCI-H929/GN2, mono-culture, read-out: mono-culture EC50): 62 nM | EC50 (NCI-H929/GN2; NCI-H929/GN2, co-culture with osteoblasts, read-out: co-culture (+ OB) EC50): 68 nM | EC50 (NCI-H929/GN2; NCI-H929/GN2, mono-culture, read-out: mono-culture EC50): 55 nM | oral bioavailability (Pharmacokinetic studies): display oral bioavailability | growth inhibitory response in words (U2OS (bone)): responded rather weakly in the micromolar range | GI50 (U2OS (bone); Homo sapiens, unit M): 94.2 nM | IC50 (U2OS (bone); Homo sapiens, unit M): 103 nM | EC50 (RPMI-8226/GN1; Homo sapiens, RPMI-8226, RPMI-8226/GN1, co-culture with osteoblasts, read-out: co-culture (+ OB) EC50): 140 nM | EC50 (RPMI-8226/GN1; Homo sapiens, RPMI-8226, RPMI-8226/GN1, mono-culture, read-out: mono-culture EC50): 140 nM | EC50 (RPMI-8226/GN1; RPMI-8226/GN1, co-culture with osteoblasts, read-out: co-culture (+ OB) EC50): 220 nM and 180 nM | EC50 (RPMI-8226/GN1; RPMI-8226/GN1, mono-culture, read-out: mono-culture EC50): 190 nM and 120 nM | growth inhibitory response in words (BXPC3 (pancreas)): growth inhibition in the middle nanomolar range | GI50 (BXPC3 (pancreas); Homo sapiens, BXPC-3, unit M): 36.3 nM | IC50 (BXPC3 (pancreas); Homo sapiens, BXPC-3, unit M): 41.8 nM | GI50 (DU145 (prostate)): 32.4 nM | IC50 (DU145 (prostate)): 37.3 nM | GI50 (NCIH82 (lung)): 16.5 nM | IC50 (NCIH82 (lung)): 21.3 nM | cell cycle profile (DNA content) [2]: remained unchanged | induction of apoptosis (Annexin V/PI staining) (A375 melanoma cells): specific induction of apoptosis | induction of apoptosis (Annexin V/PI staining) (A375 melanoma cells; listed as Otviciclib): reproducible induction of apoptosis | inhibitory activity on hERG K+ channel [3]: did not display any inhibitory activity | induction of apoptosis (Annexin V/PI staining) [4]: did not respond
